Where a name gives a salt, the structure may show the parent alone. Read-outs that look alike come from different tables or passages of the source.
Molecular target: T1, PRMT5/MEP50 complex (Homo sapiens, UniProt O14744)
T1 construct: purchased Reaction Biology Corporation
Test: PRMT5:MEP50 FlashPlate Assay (histone H4 peptide methylation)
Format: biochemical
Details: 40 nM H4 (1-15) peptide, 1 μM SAM
Procedure: The PRMT5 inhibitory activity of compounds of the present invention was determined using a PRMT5: MEP50 FlashPlate Assay and a PRMT5: MEP50 HotSpot Assay (Reaction Biology Corporation).
The assay uses purified human, PRMT5 enzyme to convert S-adenosyl-L-[methyl-3H]methionine plus histone H4 L-arginine to S-adenosyl-L-homocysteine plus histone H4 [methyl-3H]-L-arginine. The assay was carried out using Streptavidin-coated FlashPlates (Perkin Elmer), which contained a scintillant embedded in the plastic of the plate. The histone H4 peptide substrate was conjugated with biotin, which binds to the streptavidin-coated well of the plate, placing the H4 peptide in close proximity to the side well and the scintillant. The transfer of the tritiated methyl group from S-adenosyl-L-[methyl-3H]methionine to the bound histone H4 peptide generated a radiolabeled histone H4, which was quantitated by measuring in a scintillation counter to determine the activity of PRMT5 enzyme in the presence and absence of compound. […] Briefly, compounds of the present invention were solubilized in 100% DMSO at a highest concentration of 10 mM. […] Control samples lacking compound, PRMT5/MEP50 complex or various reaction components also were prepared and processed in parallel with compound test samples. SAH was used as a positive control for assay validation. To measure PRMT5 inhibitory activity, 3 nM PRMT5/MEP50 complex (Reaction Biology Corporation) was preincubated with test compound in assay buffer containing 40 nM histone H4 peptide (amino acids 1-15)-Biotin conjugate for 20 min at room temperature. The enzymatic reaction was initiated by adding 1 μM tritiated S-adenosyl methionine (final concentration) and the reaction is allowed to proceed for 20 min. The reaction was stopped and the amount of bound, tritiated H4 peptide in each sample was determined using a scintillation counter.

T1 sequence (O14744 2-637 limits assumed): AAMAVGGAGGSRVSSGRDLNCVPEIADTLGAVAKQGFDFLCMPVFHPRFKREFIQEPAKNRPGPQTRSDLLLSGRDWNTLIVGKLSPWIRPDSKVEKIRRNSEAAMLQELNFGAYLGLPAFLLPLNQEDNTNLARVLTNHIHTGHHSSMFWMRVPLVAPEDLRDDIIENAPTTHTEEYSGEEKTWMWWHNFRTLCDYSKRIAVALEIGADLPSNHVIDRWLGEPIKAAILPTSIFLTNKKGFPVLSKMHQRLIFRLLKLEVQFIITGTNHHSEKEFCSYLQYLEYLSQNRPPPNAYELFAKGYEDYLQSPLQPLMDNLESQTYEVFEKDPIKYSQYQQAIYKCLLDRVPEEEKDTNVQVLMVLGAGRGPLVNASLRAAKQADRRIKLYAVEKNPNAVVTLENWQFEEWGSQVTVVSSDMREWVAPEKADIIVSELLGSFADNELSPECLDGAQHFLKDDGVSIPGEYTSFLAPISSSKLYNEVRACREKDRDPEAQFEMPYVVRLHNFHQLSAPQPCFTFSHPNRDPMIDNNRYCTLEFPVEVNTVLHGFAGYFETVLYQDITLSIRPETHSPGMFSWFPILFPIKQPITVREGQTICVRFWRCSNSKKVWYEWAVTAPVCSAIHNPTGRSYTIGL
T1 sequence (Q9BQA1 2-342 partner limits assumed): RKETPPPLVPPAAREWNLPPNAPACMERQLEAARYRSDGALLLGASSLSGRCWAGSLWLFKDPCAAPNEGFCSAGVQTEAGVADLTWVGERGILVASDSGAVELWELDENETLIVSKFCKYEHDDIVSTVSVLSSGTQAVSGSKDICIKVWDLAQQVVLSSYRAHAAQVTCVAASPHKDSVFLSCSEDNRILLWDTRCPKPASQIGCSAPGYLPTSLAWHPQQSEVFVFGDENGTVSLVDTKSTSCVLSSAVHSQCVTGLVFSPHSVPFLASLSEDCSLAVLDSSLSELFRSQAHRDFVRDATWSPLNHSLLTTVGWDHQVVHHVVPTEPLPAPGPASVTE

SMILES | IC50 (IC50 + 2 μM MTA, plus 2 μM MTA) [µM] | IC50 (absence of MTA, read-out: IC50) [µM]
CCO[C@@H]1COC[C@H]1Nc1cccc2c1nc(N)n2C (racemic) [Example 1-7, rac-N4-((3R,4S)-4-ethoxytetrahydrofuran-3-yl)-1-methyl-1H-benzo[d]imidazole-2,4-diamine] | > 300 | 
Cn1c(N)nc2c(Nc3ccncc3)cccc21 [Example 1-31, 1-methyl-N4-(pyridin-4-yl)-1H-benzo[d]imidazole-2,4-diamine] | > 300 | 
Cn1c(N)nc2c(Nc3ccncn3)cccc21 [Example 1-32, 1-methyl-N4-(pyrimidin-4-yl)-1H-benzo[d]imidazole-2,4-diamine] | > 300 | 
Cc1nnc(CN(C)c2cccc3c2nc(N)n3C)n1C [Example 1-50, N4-((4,5-dimethyl-4H-1,2,4-triazol-3-yl)methyl)-N4,1-dimethyl-1H-benzo[d]imidazole-2,4-diamine] | > 300 | 
Cn1c(N)nc2cc(-c3cncnc3)ccc21 [Example 1-52, 1-methyl-5-(pyrimidin-5-yl)-1H-benzo[d]imidazol-2-amine] | > 300 | 
Cn1c(N)nc2cc(-c3cccnc3)ccc21 [Example 1-54, 1-methyl-5-(pyridin-3-yl)-1H-benzo[d]imidazol-2-amine] | > 300 | 
Cc1ncccc1-c1ccc2c(c1)nc(N)n2C [Example 1-58, 1-methyl-5-(2-methylpyridin-3-yl)-1H-benzo[d]imidazol-2-amine] | > 300 | 
Cn1c(N)nc2cc(-c3occc3C#N)ccc21 [Example 1-61, 2-(2-amino-1-methyl-1H-benzo[d]imidazol-5-yl)furan-3-carbonitrile] | 34.5 | 
Cn1c(N)nc2c(-c3cncnc3)cccc21 [Example 1-62, 1-methyl-4-(pyrimidin-5-yl)-1H-benzo[d]imidazol-2-amine] | > 300 | 
Cn1c(N)nc2c(-c3cccnc3)cccc21 [Example 1-64, 1-methyl-4-(pyridin-3-yl)-1H-benzo[d]imidazol-2-amine] | > 300 | 
Cn1c(N)nc2c(-c3ccccc3)cccc21 [Example 1-65, 1-methyl-4-phenyl-1H-benzo[d]imidazol-2-amine] | > 300 | 
Cn1c(N)nc2c(-c3ccncc3)cccc21 [Example 1-66, 1-methyl-4-(pyridin-4-yl)-1H-benzo[d]imidazol-2-amine] | > 300 | 
Cn1nccc1-c1cccc2c1nc(N)n2C [Example 1-67, 1-methyl-4-(1-methyl-1H-pyrazol-5-yl)-1H-benzo[d]imidazol-2-amine] | > 300 | 
Cn1ccc(-c2cccc3c2nc(N)n3C)n1 [Example 1-68, 1-methyl-4-(1-methyl-1H-pyrazol-3-yl)-1H-benzo[d]imidazol-2-amine] | > 300 | 
Cc1nn(C(C)C)cc1Nc1cccc2c1nc(N)n2C [Example 1-74, N4-(1-isopropyl-3-methyl-1H-pyrazol-4-yl)-1-methyl-1H-benzo[d]imidazole-2,4-diamine] | > 300 | 
Cn1c(N)nc2c(NCc3cn4cccc(F)c4n3)cccc21 [Example 1-75, N4-((8-fluoroimidazo[1,2-a]pyridin-2-yl)methyl)-1-methyl-1H-benzo[d]imidazole-2,4-diamine] | 180 | 
Cn1c(N)nc2c(Nc3cnccn3)cccc21 [Example 1-76, 1-methyl-N4-(pyrazin-2-yl)-1H-benzo[d]imidazole-2,4-diamine] | > 300 | 
Cn1c(N)nc2c(Nc3ncccn3)cccc21 [Example 1-78, 1-methyl-N4-(pyrimidin-2-yl)-1H-benzo[d]imidazole-2,4-diamine] | > 300 | 
Cn1c(N)nc2cc(Nc3cnccn3)ccc21 [Example 1-82, 1-methyl-N5-(pyrazin-2-yl)-1H-benzo[d]imidazole-2,5-diamine] | 50.7 | 
Cn1cc(-c2ccc(Cl)c3c2nc(N)n3C)cn1 [Example 2-1, 7-chloro-1-methyl-4-(1-methylpyrazol-4-yl)benzimidazol-2-amine hydrochloride] | > 300 | > 300
Cn1c(N)nc2c(-c3cnoc3)ccc(Cl)c21 [Example 2-7, 7-chloro-4-isoxazol-4-yl-1-methyl-benzimidazol-2-amine] | > 300 | > 300
Cn1c(N)nc2cc(Cc3ccncc3)cc(C#N)c21 [Example 3-4, 2-amino-3-methyl-6-(4-pyridylmethyl)benzimidazole-4-carbonitrile] | > 300 | > 300
Cn1nnc(CNc2cc(C#N)c3c(c2)nc(N)n3C)c1C(F)F [Example 3-23, 2-amino-5-(((5-(difluoromethyl)-1-methyl-1H-1,2,3-triazol-4-yl)methyl)amino)-1-methyl-1H-benzo[d]imidazole-7-carbonitrile] | 0.43 | 155

More lines, now with the values ahead:

IC50 (IC50 + 2 μM MTA, plus 2 μM MTA) [µM] | IC50 (absence of MTA, read-out: IC50) [µM] | SMILES
> 300 |  | Cn1c(N)nc2c(NCCN3CC4CC4C3)cccc21 (stereo not shown) [Example 1-8, N4-(2-(3-azabicyclo[3.1.0]hexan-3-yl)ethyl)-1-methyl-1H-benzo[d]imidazole-2,4-diamine]
> 300 |  | Cn1c(N)nc2c(Nc3cnn(CCN4CCCC4=O)c3)cccc21 [Example 1-13, 1-(2-(4-((2-amino-1-methyl-1H-benzo[d]imidazol-4-yl)amino)-1H-pyrazol-1-yl)ethyl)pyrrolidin-2-one]
> 300 |  | CN(Cc1nnc2n1CCOC2)c1cccc2c1nc(N)n2C [Example 1-51, N4-((5,6-dihydro-8H-[1,2,4]triazolo[3,4-c][1,4]oxazin-3-yl)methyl)-N4,1-dimethyl-1H-benzo[d]imidazole-2,4-diamine]
> 300 |  | Cn1c(N)nc2cc(-c3cn[nH]c3)ccc21 [Example 1-60, 1-methyl-5-(1H-pyrazol-4-yl)-1H-benzo[d]imidazol-2-amine]
> 300 |  | Cc1cc(-c2cccc3c2nc(N)n3C)cnc1O [Example 1-70, 5-(2-amino-1-methyl-1H-benzo[d]imidazol-4-yl)-3-methylpyridin-2-ol]
> 300 |  | Cn1cc(-c2cccc3c2nc(N)n3C)ccc1=O [Example 1-71, 5-(2-amino-1-methyl-1H-benzo[d]imidazol-4-yl)-1-methylpyridin-2(1H)-one]
> 300 |  | Cn1c(N)nc2c(-c3ccnnc3)cccc21 [Example 1-72]
> 300 |  | Cn1c(N)nc2cc(-c3ccnnc3)ccc21 [Example 1-73, 1-methyl-5-(pyridazin-4-yl)-1H-benzo[d]imidazol-2-amine]
> 300 | > 300 | CN1C(=O)CCC1c1ccc(Cl)c2c1nc(N)n2C (stereo not shown) [Example 2-5, 5-(2-amino-7-chloro-1-methyl-benzimidazol-4-yl)-1-methyl-pyrrolidin-2-one hydrochloride]
> 300 | > 300 | CN1CCOC(Cc2ccc(Cl)c3c2nc(N)n3C)C1 (stereo not shown) [Example 2-6, 7-chloro-1-methyl-4-[(4-methylmorpholin-2-yl)methyl]benzimidazol-2-amine]
> 300 | > 300 | Cn1c(N)nc2cc(C(F)(F)c3cccnc3)cc(C#N)c21 [Example 3-17, 2-amino-6-[difluoro (3-pyridyl)methyl]-3-methyl-benzimidazole-4-carbonitrile]
0.73 | 280 | CCn1cnnc1CNc1cc(C#N)c2c(c1)nc(N)n2C [Example 3-24, 2-amino-5-(((4-ethyl-4H-1,2,4-triazol-3-yl)methyl)amino)-1-methyl-1H-benzo[d]imidazole-7-carbonitrile]
